Entries after “also recorded” stand apart in the source; their conditions may differ.
Columns and labels:
NCL MEFs = assay: LysoTracker signal in Batten disease mouse embryonic fibroblasts; format: cell-based
Method: Wild type (WT) and mutant cells were treated with vehicle or LM11A-31 (100 nM, 1 μM, 10 μM). Cells were plated on day 0 and dosed with drug-containing media on DIV3 and DIV5. Concentrations of drug are shown on the x-axis above each image column; genotypes are shown to the left of each row. […] Increasing concentrations of LM11A-31 are shown along the x-axis.
(§1) Specific experimental details are included in figure legends. In general, after collection and preparation, MEFs and PNCs were dosed with vehicle or semaglutide (10 nM, 100 nM. or 1 μM) on DIV3 and DIV5. On DIV7, cells were exposed to the following dyes: Hoechst 33342 (1:1000 dilution), LysoTracker™ Red DND-99 (1:10,000 dilution), fixed. and imaged. Mice were injected three times per week with vehicle or semaglutide (2.571 μg/mouse, 25.71 μg/mouse) beginning at wean. Body weight was measured at 4, 6, 8, 12, and 16 weeks of age. At 16 weeks of age, Cln3^Δex7/8 mice along with age matched wildtype control mice were CO2 euthanized and intracardially perfused with PBS. Brains were collected and placed on a 1 mm sagittal brain block. Brains were sliced at the midline and 3 mm right of the midline. The 3 mm sagittal piece was flash frozen with −50° C. isopentane and then sectioned on a cryostat at 16 μm and placed on slides. For ASM measurements, slides were counterstained with DAPI. The other hemisphere was fixed in 4% PFA and sectioned at 50 microns on a vibratome. Immunohistochemistry was performed on free-floating sections. For SubC, GFAP, and CD68 immunolabeling, primary antibodies included mitochondrial anti-ATP synthase subunit C (Abcam, ab181243; 1:1000), anti-GFAP (Dako, Z0334; 1:5000), anti-CD68 (AbD Serotec, MCA1957; 1:2000), and secondary antibodies included anti-rabbit biotinylated (Vector Labs, BA-1000 1:1000) and anti-rat (Vector Labs, BA-9400 1:1000). Coverslips were mounted on slides using antifade-mounting media and were stored in the dark before imaging. ASM slides were imaged on a Nikon ECLIPSE™ Ni-E upright microscope with a CoolSNAP™ DYNO camera. Images were extracted from S1BF of the somatosensory cortex, CA3 of the hippocampus, and the VPM/VPL of the thalamus, with multiple images taken of multiple tissues from each animal. IHC slides were imaged and analyzed using an Aperio Digital Pathology Slide Scanner (AT2) and associated software. Images were extracted from the S1BF of the somatosensory cortex, the CA3 of the hippocampus, and the VPM/VPL of the thalamus.
The glucagon-like peptide-1 (GLP-1) analogue, semaglutide is an FDA approved type II diabetes drug. It has been shown in previous reports that GLP1 receptor (GLP1R) agonists decrease the release of inflammatory cytokines by modulating microglial activity, but existing studies have not examined any activity on lysosome-related pathways. To test whether GLP1R agonism would reduce Batten disease pathology, we tested semaglutide in Batten disease cell models (FIGS. 18-19). Wild type (WT) and mutant mouse embryonic fibroblasts (MEFs) were treated with vehicle or semaglutide (10 nM, 100 nM, 1 μM; see FIG. 18). Cells were plated on in vitro day 0 and dosed with drug-containing media on DIV3 and DIV5. Analysis occurred on DIV7. Concentrations of drug are shown on the x-axis above each image column; genotypes are shown to the left of each row. […] Increasing concentrations of semaglutide are shown along the x-axis. […] Treatment with semaglutide (10 nM, 100 nM, 1 μM) had no impact on the accumulation of autofluorescent storage material (ASM) in Cln1^R151X, Cln2^R207X, Cln3^Δex7/8, Cln6^nclf, and Cln8^mnd MEFs (FIG. 18B).

NCL PNCs = assay: LysoTracker signal in Batten disease primary neuronal cultures; format: cell-based, mouse
Method: as §1
In a further experiment, wild type (WT) and mutant primary neuronal cultures (PNCs) were treated with vehicle or semaglutide (10 nM, 100 nM, 1 μM; see FIG. 19). Cells were plated on in vitro day 0 and dosed with drug-containing media on DIV3 and DIV5. Analysis occurred on DIV7. Concentrations of drug are shown on the x-axis above each image column; genotypes are shown to the left of each row. […] Increasing concentrations of AF38469 are shown along the x-axis.

[1] = system: palmitoyl-protein thioesterase 1 (PPT1); assay: PPT1 enzyme activity in MEF lysates; format: cell-based, mouse; conditions: wild type, DIV7
Method: Wild type (WT) and mutant cells were treated with vehicle or AF38469 (40 nM). Cells were plated on day 0 and dosed with drug-containing media on DIV3 and DIV5. Cells were lysed, and protein quantification and enzyme activity assay were performed on DIV7. Data was analyzed with GraphPad Prism™. Two-way ANOVA. Mean±S.E.M. Tukey's multiple comparisons test. *p<0.05, **p<0.01, ***p<0.001, ****p<0.0001.

In the case of semaglutide, the LysoTracker signal (NCL MEFs; semaglutide 10 nM and 100 nM, Cln8^mnd MEFs) is reported as “had no impact”, the LysoTracker signal (NCL MEFs; semaglutide 10 nM, 100 nM, 1 μM, Cln1^R151X and Cln6^nclf MEFs) is reported as “had no impact” and the LysoTracker signal (NCL MEFs; semaglutide 10 nM, 100 nM, 1 μM, Cln2^R207X MEFs) is reported as “significantly reduced”. For the same compound, the LysoTracker signal (NCL MEFs; semaglutide 10 nM, Cln3^Δex7/8 MEFs) was “had no impact”, the LysoTracker signal (NCL MEFs; semaglutide 100 nM, 1 μM, Cln3^Δex7/8 MEFs) was “significantly reduced” and the LysoTracker signal (NCL MEFs; semaglutide 1 μM, Cln8^mnd MEFs) was “significantly reduced”. For the same compound, the “Lysotracker signal (as printed, FIG. 19B)” value (NCL PNCs; semaglutide 10 nM, 100 nM, 1 μM, Cln2^R207X and Cln6^nclf PNCs) was “significantly reduced”, the LysoTracker signal (NCL PNCs; semaglutide 10 nM, 100 nM, 1 μM, Cln3^Δex7/8 PNCs) was “had no impact” and the LysoTracker signal (NCL PNCs; semaglutide 10 nM, 100 nM, 1 μM, Cln6^nclf and Cln8^mnd PNCs) was “significantly reduced”. For the same compound, the LysoTracker signal (NCL PNCs; semaglutide 10 nM, 1 μM, Cln2^R207X PNCs) was “significantly reduced”, the LysoTracker signal (NCL PNCs; semaglutide 10 nM, Cln1^R151X PNCs) was “significantly elevated” and the LysoTracker signal (NCL PNCs; semaglutide 100 nM, 1 μM, Cln1^R151X PNCs) was “significantly reduced”. For the same compound, the LysoTracker signal (NCL PNCs; semaglutide 100 nM, Cln2^R207X PNCs) was “significantly elevated” and the PPT1 enzyme activity ([1]; semaglutide 100 nM, Cln2^R207X and Cln3^Δex7/8 MEFs) was “significantly increased”.
CC[C@H](C)[C@H](N)C(=O)NCCN1CCOCC1 [LM11A-31, N-[2-(morpholin-4-yl)ethyl]-L-isoleucinamide] was tested, and the LysoTracker signal (NCL MEFs; LM11A-31 100 nM, NCL MEFs) was “had no impact”, the LysoTracker signal (NCL MEFs; LM11A-31 1 μM (mid dose), Cln1^R151X, Cln2^R207X MEFs) was “significantly reduced” and the LysoTracker signal (NCL MEFs; LM11A-31 1 μM, Cln3^Δex7/8, Cln6^nclf, Cln8^mnd MEFs) was “decreasing trend”. The LysoTracker signal (NCL MEFs; LM11A-31 10 μM, Cln1^R151X and Cln2^R207X MEFs) was “decreasing trend”, the LysoTracker signal (NCL MEFs; LM11A-31 varying doses, Cln3^Δex7/8 and Cln6^nclf MEFs) was “decreasing trend” and the LysoTracker signal (NCL PNCs; LM11A-31 100 nM, Cln2^R207X PNCs) was “significantly reduced”. For the same compound, the LysoTracker signal (NCL PNCs; LM11A-31 1 μM, Cln6^nclf PNCs) was “significantly reduced” and the PPT1 enzyme activity ([1]; LM11A-31 100 nM, Cln2^R207X and Cln3^Δex7/8 MEFs) was “significantly increased”.
Cc1cccc(NC(=O)c2ccc(C(F)(F)F)cc2C(=O)O)n1 [AF38469, 2-((6-methylpyridin-2-yl)carbamoyl)-5-(trifluoromethyl)benzoic acid] was tested, and the LysoTracker signal (NCL MEFs; 40 nM, 400 nM, 4 μM, Cln1^R151X, Cln2^R207X, Cln6^nclf, Cln8^mnd, Cln11^−/− MEFs, DIV7, vs NCL vehicle) was “significantly reduced”, the LysoTracker signal (NCL MEFs; 40 nM, Cln3^Δex7/8 MEFs, DIV7) was “significantly increased” and the LysoTracker signal (NCL MEFs; 400 nM, Cln3^Δex7/8 MEFs, DIV7) was “significantly reduced”. The LysoTracker signal (NCL MEFs; 4 μM, Cln3^Δex7/8 MEFs, DIV7) was “had no impact”, the LysoTracker signal (NCL PNCs; 40 nM and 400 nM, Cln2^R207X PNCs) was “had no impact” and the LysoTracker signal (NCL PNCs; 40 nM, 400 nM, 4 μM, Cln1^R151X and Cln6^nclf PNCs, DIV7) was “significantly reduced”. For the same compound, the LysoTracker signal (NCL PNCs; 40 nM, Cln3^Δex7/8 PNCs) was “significantly increased”, the LysoTracker signal (NCL PNCs; 40 nM, Cln8^mnd PNCs) was “significantly increased” and the LysoTracker signal (NCL PNCs; 400 nM, Cln3^Δex7/8 PNCs) was “significantly reduced”. The LysoTracker signal (NCL PNCs; 400 nM, Cln8^mnd PNCs) was “significantly increased”, the LysoTracker signal (NCL PNCs; 4 μM, Cln2^R207X PNCs) was “significantly reduced” and the LysoTracker signal (NCL PNCs; 4 μM, Cln3^Δex7/8 PNCs) was “had no impact”. For the same compound, the LysoTracker signal (NCL PNCs; 4 μM, Cln8^mnd PNCs) was “had no impact” and the PPT1 enzyme activity ([1]; AF38469 40 nM, Cln2^R207X, Cln3^Δex7/8, Cln6^nclf, Cln11^−/− MEFs) was “increased the overall levels of activity; also recorded: significantly increased”.

— US20240197700A1, “Methods and Compositions for Treating Lysosomal Storage Disorders” (Sanford Health, priority 2021, published 2024)
